From ChEMBL document CHEMBL3580640, “Design, Synthesis, and Structure-Activity Relationships of Pyridine-Based Rho Kinase (ROCK) Inhibitors” (J Med Chem, 2015)

What was measured:
Format in all cases: ADME, organism-based
Conditions in all cases: in vivo
[1] = Tmax in po dosed rat
[2] = Half life in po dosed rat
[3] = Cmax in iv dosed rat; set-up: route intravenous
[4] = Oral bioavailability in rat
[5] = test system: Rattus norvegicus; experiment: Clearance in iv dosed rat
[6] = test system: Rattus norvegicus; experiment: Volume of distribution at steady state in iv dosed rat
[7] = AUC in iv dosed rat
[8] = test system: Rattus norvegicus; experiment: Half life in iv dosed rat
[9] = Cmax in po dosed rat; set-up: route oral
[10] = AUC in po dosed rat

Tmax [1]: 3 h
half-life [2]: 3.4 h
Cmax [3]: 2920 ng/mL
bioavailability [4]: 69%
clearance [5]: 3.45 mL/min/kg
Vdss [6]: 0.675 L/kg
AUC [7]: 4310 ng·h/mL
t1/2 [8]: 2.6 h
Cmax [9]: 3200 ng/mL
AUC [10]: 32600 ng·h/mL
SMILES: CS(=O)(=O)Nc1cccc(CC(=O)Nc2cc(-c3ccnc(F)c3)cs2)c1
